Measurements published in article PMC6269873, “Substituted 3-Benzylcoumarins as Allosteric MEK1 Inhibitors: Design, Synthesis and Biological Evaluation as Antiviral Agents” (Molecules, 2013).

Tests used:
phosphorylated MEK1 = phosphorylated MEK1 (Homo sapiens, UniProt Q02750); assay: MEK1 binding assay (HTRF, tracer displacement); settings: for IC50: HTRF binding to GST tagged phosphorylated MEK1, read-out: IC50; for inhibition at 2 µM: read-out: % binding (2 µM); for inhibition at 20 µM: read-out: % binding (20 µM)
Sequence of phosphorylated MEK1 (Q02750 whole entry): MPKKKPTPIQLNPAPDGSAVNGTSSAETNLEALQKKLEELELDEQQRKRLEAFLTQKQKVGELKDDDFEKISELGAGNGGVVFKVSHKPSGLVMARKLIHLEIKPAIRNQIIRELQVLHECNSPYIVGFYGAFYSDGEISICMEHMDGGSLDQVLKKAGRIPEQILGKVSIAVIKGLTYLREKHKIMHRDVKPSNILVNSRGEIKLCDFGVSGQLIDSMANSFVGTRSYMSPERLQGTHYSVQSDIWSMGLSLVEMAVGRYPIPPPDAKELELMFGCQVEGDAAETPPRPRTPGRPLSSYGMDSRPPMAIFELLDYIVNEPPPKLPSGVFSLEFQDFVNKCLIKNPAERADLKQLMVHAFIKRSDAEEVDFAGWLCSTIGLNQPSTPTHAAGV
Method: The homogeneous time resolved fluorescence (HTRF) assay was performed on a Proxiplate-384 F plus solid back plate (Perkin Elmer, Waltham, MA. USA) with 5 nM GST tagged phosphorylated MEK1 (GST-MEK1), 2 nM europium-labeled anti-GST antibody (Eu-anti-GST), 20 nM kinase tracer 236 and test compound at a variety of concentrations. In the reaction mixture, GST-MEK1 forms a complex with the Eu-anti-GST and the tracer. Excitation of europium (the donor) using a 340-nm excitation filter results in energy transfer to the fluorophore of the tracer. This energy transfer is detected by an increase in the fluorescence emission of the tracer at 665 nm and a decrease in the fluorescence emission of europium at 615 nm. The FRET ratio was calculated by dividing the emission signal at 665 nm by the emission signal at 615 nm. A competitor compound such as a MEK inhibitor replaces the tracer from the complex and decreases the FRET ratio accordingly. The plate was incubated in dark at room temperature for 30 min before measuring the fluorescent emission of each well at 665 and 615 nm using a 340-nm excitation filter, 100-µs delay time, and 200-µs integration time, on a PHERAStar plate reader (BMG Labtech, Durham, NC, USA). […] Data shown as %Inhibition normalized to AZD6244 at 100 µM.

| SMILES | melting point [°C] | IC50 (phosphorylated MEK1) [nM] | inhibition at 2 µM (phosphorylated MEK1) [%] | inhibition at 20 µM (phosphorylated MEK1) [%] | binding affinity (in words) (phosphorylated MEK1) |
| --- | --- | --- | --- | --- | --- |
| CCC(=O)Oc1cc2oc(=O)c(Cc3ccccc3)c(C)c2cc1Cl [Compound 34, 3-Benzyl-6-chloro-4-methyl-2-oxo-2H-chromen-7-yl propionate] | 124 to 126 | 326 | 70 | 72.4 |  |
| CCC(=O)Oc1ccc2c(C)c(Cc3ccccc3)c(=O)oc2c1 [Compound 35, 3-Benzyl-4-methyl-2-oxo-2H-chromen-7-yl propionate] | 118 to 119 | 1030 | 64.5 | 85 |  |
| CCCc1c(Cc2ccccc2)c(=O)oc2cc(OC(=O)CC)ccc12 [Compound 37, 3-Benzyl-2-oxo-4-propyl-2H-chromen-7-yl propionate] | 120 to 121 |  | 19.4 | 38.8 |  |
| CCC(=O)Oc1ccc2c(CC)c(Cc3ccc(F)cc3)c(=O)oc2c1 [Compound 39, 4-Ethyl-3-(4-fluorobenzyl)-2-oxo-2H-chromen-7-yl propionate] | 97 to 98 | 140 | 75.4 | 76.3 | active |
| CCCC(=O)Oc1cc2oc(=O)c(Cc3ccccc3)c(C)c2cc1Cl [Compound 41, 3-Benzyl-6-chloro-4-methyl-2-oxo-2H-chromen-7-yl butyrate] | 107 to 108 |  | 21 | 25.8 |  |
| CCCC(=O)Oc1ccc2c(CCC)c(Cc3ccccc3)c(=O)oc2c1 [Compound 44, 3-Benzyl-2-oxo-4-propyl-2H-chromen-7-yl butyrate] | 105 to 106 |  | 14 | 38.9 |  |
| CCCC(=O)Oc1ccc2c(C)c(Cc3ccc(F)cc3)c(=O)oc2c1 [Compound 45, 3-(4-Fluorobenzyl)-4-methyl-2-oxo-2H-chromen-7-yl butyrate] | 85 to 86 | 824 | 45.3 | 72.3 |  |
| CCCC(=O)Oc1ccc2c(CC)c(Cc3ccc(F)cc3)c(=O)oc2c1 [Compound 46, 4-Ethyl-3-(4-fluorobenzyl)-2-oxo-2H-chromen-7-yl butyrate] | 79 | 909 | 76.9 | 96.5 | active |
| CCCC(=O)Oc1ccc2c(CCC)c(Cc3ccc(F)cc3)c(=O)oc2c1 [Compound 47, 3-(4-Fluorobenzyl)-2-oxo-4-propyl-2H-chromen-7-yl butyrate] | 88 to 90 | 944 | 57 | 70.3 |  |
| CCCCC(=O)Oc1ccc2c(C)c(Cc3ccccc3)c(=O)oc2c1 [Compound 48, 3-Benzyl-4-methyl-2-oxo-2H-chromen-7-yl pentanoate] | 110 to 111 |  | 18.8 | 21.2 |  |
| CCCCC(=O)Oc1cc2oc(=O)c(Cc3ccccc3)c(C)c2cc1Cl [Compound 49, 3-Benzyl-6-chloro-4-methyl-2-oxo-2H-chromen-7-yl pentanoate] | 108 to 109 |  | 8.15 | 20.3 |  |
| CCCCC(=O)Oc1ccc2c(CC)c(Cc3ccccc3)c(=O)oc2c1 [Compound 50, 3-Benzyl-4-ethyl-2-oxo-2H-chromen-7-yl pentanoate] | 72 to 73 |  | 37.2 | 43.2 |  |
| CCCCC(=O)Oc1ccc2c(CCC)c(Cc3ccccc3)c(=O)oc2c1 [Compound 51, 3-Benzyl-2-oxo-4-propyl-2H-chromen-7-yl pentanoate] | 78 to 79 |  | 29.5 | 42.5 |  |
| CCCCC(=O)Oc1ccc2c(CC)c(Cc3ccc(F)cc3)c(=O)oc2c1 [Compound 52, 4-Ethyl-3-(4-fluorobenzyl)-2-oxo-2H-chromen-7-yl pentanoate] | 70 to 71 |  | 42.8 | 34 | inactive |
